Experimental findings from US20160367578A1, “METHODS AND COMPOSITIONS FOR ERADICATING LEUKEMIC CELLS” (priority 2013, published 2016) are described below.

Molecules are shown by their SMILES.

In series [1] the test system is Primary MLL-AF9 LKS acute myeloid leukemia cells. Description: Co-culture viability with enoxolone, leukemia cells (GFP+/7AAD-). It counts as cell-based. The note with it: 20 hours, 0, 5, 20, 50, 100 and 200 μM. The protocol:
(§1) Primary MLL-AF9^LKS acute myeloid leukemia cells (red bars) were co-cultured with normal BM mononuclear cells (blue bars). Cells in co-culture were exposed to enoxolone for 20 hours (at 0, 5, 20, 50, 100 and 200 μM) and then cell viability was analyzed by flow cytometry (live leukemia cells=GFP+/7AAD−; live normal cells=GFP−/7AAD−).

The subject of the next series is normal bone marrow cells. Description: Co-culture viability with enoxolone, normal bone marrow cells (myeloid vs. non-myeloid). It counts as cell-based. Details: dose or concentration left out as unconfirmed. The following applies: […] μM, 20 hours. As for the experimental part: as §1
Cells in co-culture were exposed to enoxolone for 20 hours (at 0, 5, 20, 50, 100 and 200 μM).

`CC1(C)[C@@H](O)CC[C@]2(C)[C@H]3C(=O)C=C4[C@@H]5C[C@@](C)(C(=O)O)CC[C@]5(C)CC[C@@]4(C)[C@]3(C)CC[C@@H]12` [enoxolone, 18β-glycyrrhetinic acid]: the “leukemia cell eradication in co-culture with normal BM mononuclear cells” value in series [1] was “selective leukemia cell eradication”. Also, in the series on normal bone marrow cells, the “toxicity to normal non-myeloid cells” value is “toxic to normal non-myeloid cells”.
